Columns and labels:
[1] = Dissolution study as a function of the pH value of water; assay type: physicochemical; conditions: 150 g in 900 ml of water
Source text: The solubility of the mannitol powder was then studied in the following three types of non-carbonated commercial waters: • Sangemini: pH at source 6.2; • Antica Fonte Boario: pH at source 7.0; • Panna Toscana: pH at source 8.0.

[2] = Bulk density of the powder; assay type: physicochemical; conditions: after passing through drum centrifugal sieve shaker, mesh 3 mm clear span; measured in the laboratory
Procedure: As regards the bulk density outlined above, in particular the poured bulk density, such parameter is measured according to the European Pharmacopoeia reference standard (Ph. Eur.), current edition 2.2.42, in force at the priority date of this patent application. In the context of the present invention, the expression ‘bulk’ implies that the powder density value is calculated in a manner formally analogous to an absolute density (such as for a solid body or for a liquid). However, since a powder has empty inter-particle spaces, the total volume occupied by the powder (i.e. its outer bulk), thus including the inter-particle spaces between the various particles, should be taken into account when evaluating bulk density. More precisely, according to the aforementioned regulation, a 100 ml class A graduated flask is filled and brought to volume with the powder particles, after which the bulk density is calculated as the ratio between the weight of the powder contained in the flask and the volume (100 ml) occupied by that weight of the powder particles.

- time for complete dissolution ([1]; weakly acidic or neutral pH): more than 6 minutes
- time for complete dissolution relative to weakly acidic or neutral pH ([1]; weakly basic pH): substantially half as much
- transient density [2]: about 0.73 g/ml
SMILES: OC[C@@H](O)[C@@H](O)[C@H](O)[C@H](O)CO [mannitol]

— patent US20220117845A1, “COMPOSITION AND CONTAINER, KIT, METHOD OF USE” (NTC S.R.L., priority 2019, published 2022)
